Test results as given in paper PMC8162347, “Bolaamphiphilic Bis-Dehydropeptide Hydrogels as Potential Drug Release Systems” (Gels, 2021).

How the values were obtained:
[1] = Gelation study, pH trigger with GdL, vial inversion test; type: physicochemical; conditions: for pH (gelation conditions): pH of hydrogel at cgc after GDL 0.4 wt %; for Critical Gelation Concentration (cgc): vial inversion test, water, NaOH (1 M) to circa pH 10, then GDL 0.4 wt %
Text: Nonetheless, dimeric dehydropeptides 1–4 could be dissolved in water upon pH adjustment to pH 10–11, which was achieved by addition of NaOH solution (1 M). Gel formation was triggered by a slow pH drop. The pH change was obtained by the aqueous hydrolysis of added D-glucono-δ-lactone (GdL) to D-gluconic acid. […] The CGCs of hydrogels 1–3 were qualitatively assessed by varying the peptide concentrations and conducting vial inversion tests.
Dehydrodipeptides 1, 2 and 3 were weighed into sample vials, water was added, and the suspension was adjusted under magnetic stirring to circa pH 10 (pH meter) by the addition of NaOH (1 M), and D-glucono-δ-lactone (GDL) was added. The solutions were left standing overnight at room temperature (20–25 °C).

[2] = Sustained release assay of model cargo from hydrogels
Description: Hydrogels containing cationic, anionic, or zwitterionic model drugs were prepared using the same conditions described in Section 2.2 but with the water component (1 mL) being replaced by a methylene blue solution, methyl orange solution, or ciprofloxacin solution. In a modified version of the method described by Abraham et al., water was carefully layered on top of the hydrogel surface. Then, the percentage release of model drug was recorded versus time, over 6 days, through UV absorption measurements or by HPLC and then subsequently fitted to a standard calibration curve (Figure S10 in Supplementary Information). The experiments were also assessed visually (Figure 9). […] In the studies involving the release of methyl orange, a clearly visible release of the anionic dye into the layered water solution was observed from the three hydrogels after several days (Figure 9B,D,F centre). The results for the release of methyl orange were also confirmed quantitatively by UV absorption measurements. Hydrogelators 1 and 3, which contain a phenylalanine residue, release nearly 60% of the anionic methyl orange cargo, whereas hydrogel 2, containing a tyrosine residue, released more than 90%. […] Ciprofloxacin was included as an overall neutral cargo. In experiments involving hydrogels of compounds 1–3 containing ciprofloxacin, the amount of ciprofloxacin present in the above water layer was determined by HPLC at various time-points. Hydrogelators 1, 2, and 3 release 32%, 58%, and 20% of their ciprofloxacin cargo, respectively (Table 4) (Figure S11 in Supplementary Information). As observed for methyl orange, the hydrogel that releases the greatest amount of ciprofloxacin is the hydrogel obtained from compound 2 (Table 4, Figure S11 in Supplementary Information).
To quantitatively evaluate the drug release from hydrogels 1–3, several mathematical models were tested to see which one fits the tested hydrogels. The Korsmeyer–Peppas model is the preferred model for polymeric systems. Korsmeyer described a simple relationship that described drug release from a polymeric system that includes both the diffusion and erosion of the polymer chain. The following equation describes the Korsmeyer–Peppas model: Mt/M = Kt^n
Hydrogels of 1, 2, and 3 were prepared as described in Section 4.2 to form 1 mL hydrogels containing the same concentration of the hydrogelators described above and the appropriate cargo (methylene blue ([…]), methyl orange (0.2 nM), or ciprofloxacin (0.2 nM)), in a slightly modified version of the procedure described by Abraham et al.. After allowing to stand overnight, 1.5 mL of water was carefully added to the surface of the hydrogels. Aliquots of the layered solution (100 μL) were removed at 1 h, 2 h, 3 h, 4 h, 6 h, 24 h, 72 h, and 6 days from the time the water was initially layered on top of the hydrogel. After removing each aliquot, the volume water was immediately replaced by an equal volume of water. The concentration of methylene blue or methyl orange in each aliquot was determined by measuring the absorbance at λmax of the dye (666 nm for methylene blue and 465 nm for methyl orange) using a microplate reader and then converting the value to percentage release (using a standard calibration curve). The concentration of ciprofloxacin in each aliquot was determined using analytical HPLC, where the integrated peak area was converted to a percentage release (using a standard calibration curve). Each experiment was performed in triplicate, and the mean percentage cargo release was plotted against time.

[3] = Oscillatory rheology of hydrogels; type: physicochemical; conditions: for k (growth rate constant) / kn (nucleation rate constant): fit of Equation (1) to gelation kinetics; for dG: fit of Equation (1), increment in storage modulus during the kinetics; for Initial time lag before the significant rise in G′: gelation kinetics, 0.001% strain; for Initial time lag before the significant rise in G′ / G′ / G″: 25 °C; for Initial time lag before the significant rise in G′ / Thermal stability of gel (variation of G′): 1 Hz; for Thermal stability of gel (variation of G′): heating–cooling cycle between 25 and 40 °C, 1 °C/min, strain 0.005%; for G′ / G″: hydrogel at structural equilibrium, frequency sweep 100 to 0.1 Hz, strain 0.01%
Text: This is due to the rather small deformation used during this test to allow gel formation without disturbing the build-up of the network structure. In contrast to this, see the data for compounds 1 and 2. A two-step model is often used to describe the nucleation (with rate constant kn) and growth (with rate constant k) of aggregates of peptides:(1) f(t) = G0 + dGρ(e^(1+ρ)kt − 1)/1 + ρe^(1+ρ)kt where ρ = kn/k , G0 is the initial storage modulus of the aggregate-free solution, and dG is the increment in the storage modulus during the kinetics.
After reaching the structural equilibrium established by the reading of constant shear moduli G′ and G″ with time, a frequency-sweep from 100 down to 0.1 Hz was performed with a strain of 0.01% (Figure S6 in Supplementary Information). For hydrogels obtained from compounds 1, 2, and 3, G′ is essentially constant over the frequency domain tested, and it is 10 times larger than G″. Overall, all mechanical spectra are qualitatively similar and reminiscent of the rheological signature of gels, as G′ is higher than G″ for hydrogels of compounds 1–3 (Table 3). ′
After the thermal cycle, gels were submitted to a strain sweep, where the frequency was maintained at 1 Hz. The hydrogels of compounds 2 and 1 break up more easily than hydrogel of compound 3 (Figure 7). […] In summary, and connecting the rheological data to the structural information inferred from both STEM and CD, coil conformers of compound 2 rapidly self-assemble to build a rubber-like (entropic) network, which brings most of the gel elasticity. This is in contrast to the elastically weaker gels of compound 3, which are predominantly made from the networking of fibrils likely formed from beta conformers. Gels of compound 1 show intermediate elasticity, originating from the slower networking of a mixture of coil and beta sheet conformers.
The viscoelastic characterization of hydrogels was performed with a stress-controlled rotational rheometer Anton Paar MCR300 (Anton Paar GmbH, Graz, Austria). Gel-forming solutions were loaded in the shearing geometry (a Couette cell with 1 mL volume and 0.5 mm gap) at 25 °C. The liquid sample was pre-sheared at a shear rate of 5 s^−1 during one minute to homogenize the sample in the shearing geometry. Then, the gelation kinetics was monitored during 10 h by applying a small amplitude (0.001%) oscillatory shear at 1 Hz and recording both storage (G′) and loss (G″) moduli at each second. Then, mechanical spectra were recorded, and gels were submitted to a heating–cooling cycle between 25 and 40 °C at a rate of +/−1 °C/min. Finally, gels were submitted to a strain sweep.

[4] = system: HaCaT cell line (human keratinocytes); assay: MTT assay, cell viability; type: cell-based; conditions: 24 h; for Apparent loss of cell viability (mitochondrial activity): most concentrations tested, independent of concentration
Description: Human keratinocytes cell line HaCaT was from ATCC. Cells were cultured in DMEM supplemented with 10% FBS and 1% penicillin/streptomycin and were incubated at 37 °C, in a humidified atmosphere of 5% CO2.
Cells were seeded in 96-well plates (1.5 × 10^4 cells/well) and left to attach for 24 h. After this period, cells were incubated with different concentrations of the molecules under study for another 24 h. Then, cell viability was evaluated based on the ability of metabolically active cells to convert MTT to formazan over the course of 2 h. Absorbances were measured at 570 nm in a Multiskan GO plate reader (Thermo Fisher Scientific; Waltham, MA, USA) and results were expressed as percentage of the respective control and correspond to the mean ± standard error of the mean (SEM) of at least three independent experiments performed in triplicate. On the other hand, to assess the release of the stable cytosolic enzyme lactate dehydrogenase (LDH) into the media, 24 h after the incubation of the cells with the different concentrations of the molecules under study, 40 µL of culture media were removed to a 96-well plate. LDH released was determined using a CytoTox 96® assay kit (Promega; Madison, WI, USA) according to the manufacturer’s instructions. Then, 1% Triton X-100 was used as positive control to assure cell lysis (30 min). Absorbances were measured at 490 nm in a Multiskan GO plate reader (Thermo Fisher Scientific; Waltham, MA, USA), and results correspond to the fold-increase of absorbance in treated vs. untreated cells of three independent experiments performed in duplicate. Following assessment of the distribution of the results, ANOVA was performed using GraphPad Prism 8.0 (GraphPad Prism Inc., San Diego, CA, USA).

[5] = Cbz-capped dehydrodipeptides; cited from earlier work
Description: Our research group, and others, have reported new dehydropeptides capable of forming hydrogels. The presence of a dehydroamino acid residue imparts increased proteolytic resistance into the hydrogels, as well as different physical properties arising from the decreased structural flexibility of the dehydropeptide chain [13, 14, 15, 16]. In our laboratories, several dehydrodipeptides capped on the N-terminus with naproxen (e.g., Npx-L-Phe-Z-ΔPhe-OH and Npx-L-Trp-Z-ΔPhe-OH) were prepared and tested as hydrogelators, providing hydrogels with critical gelation concentrations (CGCs) of between ... || Figure 1 (A) Our previously studied naproxen- and carboxybenzyl-capped dehydropeptide hydrogelators. (B) Examples of bolaamphiphilic hydrogelators in the literature. (C) Summary of hydrogel properties. (D) Combining the structures of N-capped dehydrohydropeptide gelators and bolaamphiphilic gelators into a single molecule. TEXT PRINTED IN THE PICTURE: (C) a: cgc (wt%): 0.4 (pH: 8.0) | (C) b: cgc (wt%): 0.4 (pH: 6.0) | (C) c: cgc (wt%): 0.1 (pH: 5.0) | (C) d: cgc (wt%): 0.2 (pH: 5.0) | (C) e: cgc (wt%): 2.5 (pH: 2.0) | (C) f: cgc (wt%): 5.0 (pH: 3.3)

[6] = standing overnight at room temperature (20–25 °C)

Compound	pH (gelation conditions) [1]	Critical Gelation Concentration (cgc) ([1]; overnight at room temperature)	Critical Gelation Concentration (cgc) [1, 6]	dG [3]	Thermal stability of gel (variation of G′) [3]	G′ [3]	G″ [3]	G0 ([3]; fit of Equation (1) (Saitô) to gelation kinetics, initial storage modulus)	Hydrogel formation ([1]; slow pH drop by GdL hydrolysis from pH 10–11, for 4 several triggers (pH, temperature, solvent exchange), 0.3–0.8 wt %)	K, release rate constant, Korsmeyer–Peppas model ([2]; ciprofloxacin release profile)	n, release exponent, Korsmeyer–Peppas model ([2]; ciprofloxacin release profile)	K, release rate constant, Korsmeyer–Peppas model ([2]; methyl orange release profile)	n, release exponent, Korsmeyer–Peppas model ([2]; methyl orange release profile)	k (growth rate constant) [3]	kn (nucleation rate constant) [3]	Initial time lag before the significant rise in G′ [3]	Apparent loss of cell viability (mitochondrial activity) [4]	Effect on HaCaT viability [4]	Loss of mitochondrial activity ([4]; the two highest concentrations)	CGC [5]
O=C(O)/C(=C/c1ccccc1)NC(=O)[C@H](Cc1ccccc1)NC(=O)c1ccc(C(=O)N[C@@H](Cc2ccccc2)C(=O)N/C(=C\c2ccccc2)C(=O)O)cc1 [Compound 1]	5.10	4.0 mM	0.3 wt %	2392 ± 66 Pa	not thermally sensitive	2.5 × 10^3 Pa	6.5 × 10^1 Pa			0.0200	0.3300	0.0200	0.4000	0.18 ± 0.10 h⁻¹	0.40 ± 0.04 h⁻¹	2300 s	around 20%			
O=C(O)/C(=C/c1ccccc1)NC(=O)[C@H](Cc1ccccc1)NC(=O)c1ccc2cc(C(=O)N[C@@H](Cc3ccccc3)C(=O)N/C(=C\c3ccccc3)C(=O)O)ccc2c1 [Compound 3]	5.30	3.7 mM	0.3 wt %			3.7 × 10^2 Pa	1.3 × 10^1 Pa			0.0001	0.6300	0.0400	0.3300				around 20%			
Cbz-L-Phe-Z-ΔPhe-OH																				0.1%
Cbz-L-Tyr-Z-ΔPhe-OH																				0.1%

More lines, main results first:

pH (gelation conditions) [1]	Critical Gelation Concentration (cgc) ([1]; overnight at room temperature)	Critical Gelation Concentration (cgc) [1, 6]	dG [3]	Thermal stability of gel (variation of G′) [3]	G′ [3]	G″ [3]	G0 ([3]; fit of Equation (1) (Saitô) to gelation kinetics, initial storage modulus)	Hydrogel formation ([1]; slow pH drop by GdL hydrolysis from pH 10–11, for 4 several triggers (pH, temperature, solvent exchange), 0.3–0.8 wt %)	Compound	K, release rate constant, Korsmeyer–Peppas model ([2]; ciprofloxacin release profile)	n, release exponent, Korsmeyer–Peppas model ([2]; ciprofloxacin release profile)	K, release rate constant, Korsmeyer–Peppas model ([2]; methyl orange release profile)	n, release exponent, Korsmeyer–Peppas model ([2]; methyl orange release profile)	k (growth rate constant) [3]	kn (nucleation rate constant) [3]	Initial time lag before the significant rise in G′ [3]	Apparent loss of cell viability (mitochondrial activity) [4]	Effect on HaCaT viability [4]	Loss of mitochondrial activity ([4]; the two highest concentrations)	CGC [5]
4.15	5.1 mM	0.4 wt %	5722 ± 39 Pa	shows a thermal hysteresis	4.5 × 10^3 Pa	1.4 × 10^2 Pa	0 ± 25 Pa		O=C(O)/C(=C/c1ccccc1)NC(=O)[C@H](Cc1ccc(O)cc1)NC(=O)c1ccc(C(=O)N[C@@H](Cc2ccc(O)cc2)C(=O)N/C(=C\c2ccccc2)C(=O)O)cc1 [Compound 2]	0.0030	0.5800	0.0900	0.2700	1.84 ± 0.04 h⁻¹	0.02 ± 0.001 h⁻¹	4600 s		mostly devoid of any effect	around 10%	
	No hydrogel	No hydrogel						failed to give hydrogels	O=C(O)/C(=C/c1ccccc1)NC(=O)[C@H](Cc1ccc(O)cc1)NC(=O)c1ccc2cc(C(=O)N[C@@H](Cc3ccc(O)cc3)C(=O)N/C(=C\c3ccccc3)C(=O)O)ccc2c1 [Compound 4]								around 20%			
